Source: patent US7744927B2, “Methods of promoting hematopoietic and mesenchymal cell proliferation and differentiation” (University of Southern California, priority 1997, dated 2010)
Non-standard residues stand in square brackets, D forms with d. No end group written: not given here. Phe(4-NH2) = Nc1ccc(C[C@H](N)C(=O)O)cc1

Key:
[1] = system: human peripheral blood mononuclear cells (PBMC); assay: Respiratory burst (hydrogen peroxide generation), human PBMC; assay type: cell-based; settings: alone and in response to PMA 10 ng/ml; 4 hours exposure
Description: The respiratory burst of leukocytes (macrophages and polymorphonuclear neutrophils) is one component of the mediator system used to kill bacteria. As with phagocytosis, the level of this respiratory burst activity in resident macrophages is low. […] Studies were conducted to assess the effect of in vitro exposure of murine or rat peritoneal macrophages and human peripheral blood mononuclear cells (PBMC) to various concentrations of AII on the capacity to generate hydrogen peroxide via the respiratory burst system. For the human studies, five different donors were examined.
The murine or rat peritoneal cells were harvested by lavage with 5-15 ml of cold PBS with 0.5% bovine serum albumin. The human PBMC were harvested by venipuncture from normal human volunteers and isolated from peripheral blood by Ficoll Hypaque density centrifugation. After isolation, the cells were resuspended at 1×10^6 cells/ml and placed at 100 μl per well into 96 well plates. The cells were incubated with various concentrations of AII or AII analogues for 4 hours at 37° C. The cells were then preloaded with a fluorescent probe for hydrogen peroxide, 2,7 dichlorofluorescein acetate, which is nonfluorescent in the absence of hydrogen peroxide. Fifteen minutes later, 10 ng/ml of phorbol myristate acetate (+PMA) or PBS (−PMA) was added to stimulate the production of hydrogen peroxide. One hour after stimulation the level of fluorescence produced was measured on a Cytofluor 2350 multiwell fluorometer.

AT2 receptor = settings: experimental models tested; cited from earlier work
[2] = system: Rat Peritoneal Macrophages; assay: Phagocytosis of opsonized yeast by rat peritoneal macrophages; assay type: cell-based, Sprague Dawley rats
Description: Resident peritoneal macrophages have very little phagocytic activity. Exposure of macrophages to inflammatory or activating agents will increase this macrophage function. Resident peritoneal macrophages were harvested from C57B1/6 mice or Sprague Dawley rats and resuspended at a concentration of 1×10^6 cells/ml in phosphate buffered saline (PBS). Five separate 0.5 ml cell aliquots were placed on a glass coverslip in a 35 mm petri dish. Prior to incubation, either 0.5 ml of PBS, AII, or AII analogues or fragments at between 1-1000 ug/ml final concentration was added to the individual cover slips. The dishes containing the cover slips were then incubated at 37° C. for 4 hours, after which the cover slips were washed 3 to 6 times with PBS. Opsonized yeast particles (Sigma Chemical Co.) (yeast opsonized with adult serum from the same species as that under study) were added to the cover slips and incubated for 2 hours, after which the cover slips were again washed with PBS and inverted onto a glass slide. The number of macrophages that ingested yeast and the number of yeast per macrophage ingested was then determined microscopically. At least 100 macrophages per coverslip were counted. The data from this study are summarized in Tables 3 and 4 and FIGS. 1 and 2.

[3] = Test of AII fragments for effectiveness (method not described)

Substance	ability to generate hydrogen peroxide (respiratory burst) [1]	binding characteristics (AT2 receptor)	#/Cell ([2]; peptide 100 μg/ml)	% w/Yeast ([2]; peptide 100 μg/ml) [%]	Number of Macrophages with Yeast (Yeast Number) 0 ([2]; peptide 100 μg/ml)	Number of Macrophages with Yeast (Yeast Number) 1-3 ([2]; peptide 100 μg/ml)	Number of Macrophages with Yeast (Yeast Number) 4-6 ([2]; peptide 100 μg/ml)	#/Cell ([2]; peptide 1000 μg/ml)	% w/Yeast ([2]; peptide 1000 μg/ml) [%]	Number of Macrophages with Yeast (Yeast Number) 1-3 ([2]; peptide 1000 μg/ml)	Number of Macrophages with Yeast (Yeast Number) 4-6 ([2]; peptide 1000 μg/ml)	effectiveness [3]
Asp-Arg-Val-Tyr-Ile-His-Pro (DRVYIHP) [AII(1-7)]	an increase in the respiratory burst capacity was observed	–	–	–	–	–	–	–	–	–	–	–
Asp-Arg-Val-Tyr-Ile-Xaa-Pro-Phe (DRVYI[Phe(4-NH2)]PF) [(p-NH2-Phe)6-AII]	–	comparable to AT2 antagonists	–	–	–	–	–	–	–	–	–	–
DRPYIHPF [GSD 24B]	an increase in the respiratory burst capacity was observed	–	0.58	23.1	100	25	5	0.18	9.1	10	0	–
DRVYIHPI [GSD 28]	an increase in the respiratory burst capacity was observed	–	0.02	1.0	100	1	0	–	–	–	–	–
His-Pro-Phe (HPF) [AII(6-8)]	–	–	–	–	–	–	–	–	–	–	–	found not to be effective
RVYAHPF [GSD 22A]	an increase in the respiratory burst capacity was observed	–	0.59	23.7	100	26	5	0.40	18.7	22	1	–
Tyr-Ile-His-Pro-Phe (YIHPF; printed: Tyr-Ile-His-Pro-Phe) [AII(4-8)]	–	–	–	–	–	–	–	–	–	–	–	found not to be effective
